# Data taken from a melting point compilation (Tetko et al.).
row,SMILES,melting point [°C]
1,CC(C)(C)c1nc2ccc(N)cc2s1,137 to 139
2,C#CCOc1ccc(N)cc1,49 to 51
3,O=C(O)c1cc2c([nH]c1=O)CCCCC2,247 to 249
4,CC(=O)CN1C(=O)c2ccccc2S1(=O)=O,144 to 146
5,Clc1ccc(Cl)c(OCCBr)c1,57 to 59
6,O=C(O)C12CC3CC(C1)CC(C(F)(F)F)(C3)C2,138 to 140
7,O=C(CCl)Nc1ncc(Cc2ccc(F)cc2)s1,149 to 151
8,Cc1cc(C(=O)O)nn1-c1ccc(Cl)cc1Cl,199 to 201
9,O=C(O)CNC(=O)c1ccc2[nH]nnc2c1,215 to 217
10,NC1CCN(c2ccc(C(F)(F)F)cc2)C1 (configuration not stated),60 to 62
11,Nc1nnc(-c2ccc(Br)cc2F)s1,194 to 196
12,CNC(C(=O)O)c1ccc(F)cc1F (configuration not stated),277 to 279
13,Nc1ccc2c(c1)NC(=O)CC2,210 to 212
14,Cc1ccc(C(=O)O)n1C,149 to 151
15,O=C(O)c1ccc(C(F)(F)F)[nH]c1=O,161 to 163
16,O=C(O)CCCc1ccc2ccccc2c1,91 to 93
17,O=C(O)C(CO)NS(=O)(=O)c1ccc(Cl)cc1 (configuration not stated),206 to 208
18,OCCC1CSCCN1 (configuration not stated),86 to 88
19,COCCNS(=O)(=O)c1ccc(C#N)cc1,88 to 90
20,COC(=O)c1ccc(COc2ccc(C=O)cc2OC)cc1,129 to 131
21,COC(=O)c1cc2c(F)cc(F)cc2[nH]1,198 to 200
22,Nc1ccccc1C(=O)NCc1cccnc1,119 to 121
23,O=C(CCl)NC(Cc1c[nH]c2ccccc12)C(=O)O (configuration not stated),153 to 155
24,NCC1CC(=O)Nc2ccccc21 (configuration not stated),142 to 144

row,SMILES,melting point [°C]
1,NC(=O)c1ccc(N=C=S)cc1,189 to 191
2,CC(C)(C)OC(=O)N1CC2(CNC(=O)C2)C1,163 to 165
3,O=C(O)c1cc(-c2ccc(C(F)(F)F)cc2)no1,329 to 331
4,Brc1ccc(NCc2cccs2)cc1,49 to 51
5,O=S(=O)(Cl)c1cc(Br)c(F)cc1F,34 to 36
6,O=C1NCCCCC1Oc1ccc(Br)cc1 (configuration not stated),176 to 178
7,O=C1CCC(c2ccccc2)CCN1 (configuration not stated),194 to 196
8,O=C(O)c1c(O)cc(F)cc1F,182 to 184
9,N#Cc1ccc2c(c1)CCCC2=O,132 to 134
10,Cc1cc(C)c(C=O)cc1C,41 to 46
11,CS(=O)(=O)c1ccc(N)c(N)c1,125 to 127
12,O=C1OC(O)C(Cl)=C1Cl (configuration not stated),179 to 182
13,Cc1ccc2c(C)cc(NN)nc2c1C,191 to 193
14,Cc1sc(N)nc1-c1ccc(Br)cc1,147 to 149
15,O=C(O)c1cc(Cl)c(Br)[nH]1,168 to 170
16,CCCOc1ccc(C=CC(=O)O)cc1OC,187 to 189
17,NC(=NO)C1CCCc2ccccc21 (configuration not stated),133 to 135
18,CCOC(=O)c1cc(-c2ccccc2)sc1N,118 to 120
19,O=C1CCCc2ccc(F)cc21,56 to 58
20,CC(C)(C)OC(=O)NCCN=C=O,102 to 104
21,Brc1ccccc1-c1ncno1,35 to 37
22,O=C(O)c1nn(-c2ccc(F)cc2)cc1O,227 to 229
23,Clc1ccc(OC2CCCNC2)nc1 (configuration not stated),64 to 66
24,N#Cc1ccccc1CN1C(=O)CCC1=O,122 to 124

row,SMILES,melting point [°C]
1,NC(=NO)c1ccccc1OCc1ccccc1,120 to 122
2,Cc1cccc(Oc2ccc(N)cn2)c1C,68 to 70
3,NC(=O)C(CC(=O)O)NC(=O)OCc1ccccc1 (configuration not stated),169 to 171
4,O=C(CCl)NCC1CCN(c2ccccc2)C1 (configuration not stated),61 to 63
5,Nn1c(S)nnc1SCc1ccccc1,157 to 159
6,Cn1cnc(S(=O)(=O)Cl)c1Cl,54 to 56
7,O=C(O)C1CC(=O)N(c2ccc3c(c2)OCCO3)C1 (configuration not stated),221 to 223
8,CC1CCCC(C)N1S(=O)(=O)c1ccsc1C(=O)O (configuration not stated),150 to 152
9,Nc1ccc(C(=O)O)nc1Br,206 to 208
10,Cc1c(S(=O)(=O)Cl)cnn1-c1ccccc1Cl,98 to 100
11,CN(C)C(=O)Nc1cccc(C(=O)O)c1,209 to 211
12,O=C(O)C1(O)CCCCC1,102 to 104
13,O=C(O)c1ccc2c(c1)C(=O)N(Cc1ccccc1)C2=O,198 to 200
14,O=C(O)c1cn(-c2ccc(F)cc2)nn1,159 to 161
15,CC(C)(C)C(=O)NCc1ccc(C(=O)CCl)s1,102 to 104
16,CC1Cc2ccccc2N1S(=O)(=O)c1ccc(F)c(C(=O)O)c1 (configuration not stated),200 to 202
17,COc1cc(C(C)N)ccc1OCCO (configuration not stated),103 to 105
18,Nc1ccc(-n2cccn2)nc1,97 to 99
19,NC(CN1CCc2ccccc21)=NO,93 to 95
20,COc1ccc(C(=O)O)cc1S(=O)(=O)N1CC(C)CC(C)C1 (configuration not stated),262 to 264
21,CC(=O)Nc1c(C)cc(N)cc1C,204 to 206
22,Cc1sc(N)c(C#N)c1C,134 to 136
23,COc1ccc2[nH]c(C(=O)O)cc2c1OC(F)F,231 to 233
24,O=C(c1ccc(O)cc1)N1CCCC1,168 to 170
